Data from patent US20250205181A1 (CZAP RESEARCH AND DEVELOPMENT, LLC, priority 2021, published 2025).
pKi: −log10 of the molar value.

Experiments:
CB2 receptor = CB2 receptor (Mus musculus, UniProt P47936); conditions: literature value, Lin et al., J Med Chem 1998; cited from earlier work
[1] = Self-reported erectogenic effect / blood flow when tumescent in subject (Examples 1 and 2); type: in vivo, human; conditions: in conjunction with the 25 mg dosing of the anandamide CD formulation
Method: The subject had been taking various amounts of sildenafil for many years at 10-25 mg increments.
The subject of Example 1 determined that the combined use of these formulations permitted controlled dosing with bolus and/extended release regimens.

Sequence of CB2 receptor (P47936 whole entry): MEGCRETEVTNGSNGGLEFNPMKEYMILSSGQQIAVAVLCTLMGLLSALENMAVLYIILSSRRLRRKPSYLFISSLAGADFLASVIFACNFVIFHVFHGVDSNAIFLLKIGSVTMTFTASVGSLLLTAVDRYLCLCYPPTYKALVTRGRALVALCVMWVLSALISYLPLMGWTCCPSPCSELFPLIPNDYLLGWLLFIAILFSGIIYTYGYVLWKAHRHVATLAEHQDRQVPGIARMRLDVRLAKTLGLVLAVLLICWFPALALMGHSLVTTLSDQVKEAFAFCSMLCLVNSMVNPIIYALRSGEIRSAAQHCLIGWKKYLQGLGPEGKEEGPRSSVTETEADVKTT

SMILES	pKi (CB2 receptor)	effect of 10 mg sildenafil in conjunction with anandamide CD versus 25 mg sildenafil before anandamide CD supplementation [1]
CCCCC/C=C\C/C=C\C/C=C\C/C=C\CCCC(=O)NCCO [anandamide, (5Z,8Z,11Z,14Z)-N-(2-hydroxyethyl)icosa-5,8,11,14-tetraenamide]	< 6.00	
CCCc1nn(C)c2c(=O)[nH]c(-c3cc(S(=O)(=O)N4CCN(C)CC4)ccc3OCC)nc12 [sildenafil]		more noticeable results
